Experimental data from PubChem BioAssay AID1963846 (Molecular Pharmacology Branch, DTP, NCI, 2024).

System: 454973-116-R2-J3-PDC complex spheroid viability
Experiment: Anticancer human tumor 454973-116-R2-J3-PDC patient-derived pancreatic carcinoma cell line growth inhibition [POLQ]
Conditions: for IC50: curve of first compound; for viability, T/C: stronger effect = lower value
Procedure, shortened: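 Patient-derived tumour cells were co-cultured with HUVEC and mesenchymal stem cells as multicellular spheroids at 37 °C. They were treated with POLQ inhibitors (novobiocin, ART-558, RP6685) alone or combined with other agents. Top concentrations were at or near clinical Cmax (otherwise 10 microM; SN-38 at 1 microM), decreasing in half-log steps.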

[1] = second compound 0.0316 µM, first compound 0.000316 µM
[2] = second compound 0.0316 µM, first compound 0.001 µM
[3] = second compound 0.0316 µM, first compound 0.00316 µM
[4] = second compound 0.0316 µM, first compound 0.01 µM
[5] = second compound 0.0316 µM, first compound 0.0316 µM
[6] = second compound 0.0316 µM, first compound 0.1 µM
[7] = second compound 0.1 µM, first compound 0.000316 µM
[8] = second compound 0.1 µM, first compound 0.001 µM
[9] = second compound 0.1 µM, first compound 0.00316 µM
[10] = second compound 0.1 µM, first compound 0.01 µM
[11] = second compound 0.1 µM, first compound 0.0316 µM
[12] = second compound 0.1 µM, first compound 0.1 µM
[13] = second compound 0.316 µM, first compound 0.000316 µM
[14] = second compound 0.316 µM, first compound 0.001 µM
[15] = second compound 0.316 µM, first compound 0.00316 µM
[16] = second compound 0.316 µM, first compound 0.01 µM
[17] = second compound 0.316 µM, first compound 0.0316 µM
[18] = second compound 0.316 µM, first compound 0.1 µM
[19] = second compound 1 µM, first compound 0.000316 µM
[20] = second compound 1 µM, first compound 0.001 µM
[21] = second compound 1 µM, first compound 0.00316 µM
[22] = second compound 1 µM, first compound 0.01 µM
[23] = second compound 1 µM, first compound 0.0316 µM
[24] = second compound 1 µM, first compound 0.1 µM
[25] = second compound 3.16 µM, first compound 0.000316 µM
[26] = second compound 3.16 µM, first compound 0.001 µM
[27] = second compound 3.16 µM, first compound 0.00316 µM
[28] = second compound 3.16 µM, first compound 0.01 µM
[29] = second compound 3.16 µM, first compound 0.0316 µM
[30] = second compound 3.16 µM, first compound 0.1 µM
[31] = second compound 10 µM, first compound 0.000316 µM
[32] = second compound 10 µM, first compound 0.001 µM
[33] = second compound 10 µM, first compound 0.00316 µM
[34] = second compound 10 µM, first compound 0.01 µM
[35] = second compound 10 µM, first compound 0.0316 µM
[36] = second compound 10 µM, first compound 0.1 µM
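Note: spheroids exposed to drugs for seven days before measurement.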
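Throughout, for viability, T/C: percent viability relative to DMSO vehicle control wells taken as 100%.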

## CC[C@@]1(O)C(=O)OCc2c1cc1n(c2=O)Cc2cc3c(CN(C)C)c(O)ccc3nc2-1 + Nc1ccc(C#CCN(C(=O)Cc2ncc(C(F)(F)F)cc2C(F)(F)F)c2ccc(F)cc2)nn1
Second compound 0.0316 µM
  IC50: 15.7 nM
Second compound 0.1 µM
  IC50: 15.8 nM
Second compound 0.316 µM
  IC50: 15 nM
Second compound 1 µM
  IC50: 15.6 nM
Second compound 3.16 µM
  IC50: 16.1 nM
Second compound 10 µM
  IC50: 17.2 nM
[1]
  viability, T/C: 105%
[2]
  viability, T/C: 106%
[3]
  viability, T/C: 98.9%
[4]
  viability, T/C: 73.7%
[5]
  viability, T/C: 13.2%
[6]
  viability, T/C: 10.1%
[7]
  viability, T/C: 107%
[8]
  viability, T/C: 104%
[9]
  viability, T/C: 97.3%
[10]
  viability, T/C: 73.2%
[11]
  viability, T/C: 14.2%
[12]
  viability, T/C: 10.4%
[13]
  viability, T/C: 106%
[14]
  viability, T/C: 102%
[15]
  viability, T/C: 107%
[16]
  viability, T/C: 71.2%
[17]
  viability, T/C: 10.7%
[18]
  viability, T/C: 12.3%
[19]
  viability, T/C: 111%
[20]
  viability, T/C: 110%
[21]
  viability, T/C: 94.5%
[22]
  viability, T/C: 73.2%
[23]
  viability, T/C: 13.2%
[24]
  viability, T/C: 12.3%
[25]
  viability, T/C: 111%
[26]
  viability, T/C: 113%
[27]
  viability, T/C: 98.7%
[28]
  viability, T/C: 76.5%
[29]
  viability, T/C: 11.9%
[30]
  viability, T/C: 10.3%
[31]
  viability, T/C: 122%
[32]
  viability, T/C: 110%
[33]
  viability, T/C: 104%
[34]
  viability, T/C: 86.1%
[35]
  viability, T/C: 8.55%
[36]
  viability, T/C: 9.22%

## Cn1ncnc1[C@H]1c2n[nH]c(=O)c3cc(F)cc(c23)N[C@@H]1c1ccc(F)cc1 + Nc1ccc(C#CCN(C(=O)Cc2ncc(C(F)(F)F)cc2C(F)(F)F)c2ccc(F)cc2)nn1
Second compound 0.0316 µM
  IC50: > 100 nM
Second compound 0.1 µM
  IC50: > 100 nM
Second compound 0.316 µM
  IC50: > 100 nM
Second compound 1 µM
  IC50: > 100 nM
Second compound 3.16 µM
  IC50: > 100 nM
Second compound 10 µM
  IC50: > 100 nM
[1]
  viability, T/C: 107%
[2]
  viability, T/C: 93.9%
[3]
  viability, T/C: 98%
[4]
  viability, T/C: 90.9%
[5]
  viability, T/C: 93.6%
[6]
  viability, T/C: 82.3%
[7]
  viability, T/C: 108%
[8]
  viability, T/C: 104%
[9]
  viability, T/C: 96.7%
[10]
  viability, T/C: 98.9%
[11]
  viability, T/C: 97.2%
[12]
  viability, T/C: 79.9%
[13]
  viability, T/C: 105%
[14]
  viability, T/C: 102%
[15]
  viability, T/C: 102%
[16]
  viability, T/C: 92.3%
[17]
  viability, T/C: 101%
[18]
  viability, T/C: 89.2%
[19]
  viability, T/C: 109%
[20]
  viability, T/C: 105%
[21]
  viability, T/C: 108%
[22]
  viability, T/C: 105%
[23]
  viability, T/C: 91.6%
[24]
  viability, T/C: 82.9%
[25]
  viability, T/C: 111%
[26]
  viability, T/C: 116%
[27]
  viability, T/C: 102%
[28]
  viability, T/C: 100%
[29]
  viability, T/C: 96.3%
[30]
  viability, T/C: 84.7%
[31]
  viability, T/C: 112%
[32]
  viability, T/C: 109%
[33]
  viability, T/C: 117%
[34]
  viability, T/C: 107%
[35]
  viability, T/C: 113%
[36]
  viability, T/C: 95.8%

## CC(C)n1c(=O)n(C)c2cnc3cc(F)c(-c4ccc(OCCCN5CCCCC5)nc4)cc3c21 + Cc1cccc(N(C)C(=O)C2C(O)CCN2c2nc(C)cc(C(F)(F)F)c2C#N)c1
Second compound 0.0316 µM
  IC50: > 10000 nM
Second compound 0.1 µM
  IC50: > 10000 nM
Second compound 0.316 µM
  IC50: > 10000 nM
Second compound 1 µM
  IC50: > 10000 nM
Second compound 3.16 µM
  IC50: > 10000 nM
Second compound 10 µM
  IC50: > 10000 nM
[5]
  viability, T/C: 97.4%
[6]
  viability, T/C: 96.4%
Second compound 0.0316 µM, first compound 0.316 µM
  viability, T/C: 103%
Second compound 0.0316 µM, first compound 1 µM
  viability, T/C: 99.7%
Second compound 0.0316 µM, first compound 3.16 µM
  viability, T/C: 105%
Second compound 0.0316 µM, first compound 10 µM
  viability, T/C: 77.2%
[11]
  viability, T/C: 97.3%
[12]
  viability, T/C: 105%
Second compound 0.1 µM, first compound 0.316 µM
  viability, T/C: 101%
Second compound 0.1 µM, first compound 1 µM
  viability, T/C: 113%
Second compound 0.1 µM, first compound 3.16 µM
  viability, T/C: 107%
Second compound 0.1 µM, first compound 10 µM
  viability, T/C: 85%
[17]
  viability, T/C: 105%
[18]
  viability, T/C: 110%
Second compound 0.316 µM, first compound 0.316 µM
  viability, T/C: 114%
Second compound 0.316 µM, first compound 1 µM
  viability, T/C: 104%
Second compound 0.316 µM, first compound 3.16 µM
  viability, T/C: 97.1%
Second compound 0.316 µM, first compound 10 µM
  viability, T/C: 86.8%
[23]
  viability, T/C: 103%
[24]
  viability, T/C: 105%
Second compound 1 µM, first compound 0.316 µM
  viability, T/C: 110%
Second compound 1 µM, first compound 1 µM
  viability, T/C: 116%
Second compound 1 µM, first compound 3.16 µM
  viability, T/C: 104%
Second compound 1 µM, first compound 10 µM
  viability, T/C: 87.3%
[29]
  viability, T/C: 109%
[30]
  viability, T/C: 106%
Second compound 3.16 µM, first compound 0.316 µM
  viability, T/C: 108%
Second compound 3.16 µM, first compound 1 µM
  viability, T/C: 99.3%
Second compound 3.16 µM, first compound 3.16 µM
  viability, T/C: 101%
Second compound 3.16 µM, first compound 10 µM
  viability, T/C: 86%
[35]
  viability, T/C: 114%
[36]
  viability, T/C: 110%
Second compound 10 µM, first compound 0.316 µM
  viability, T/C: 96.6%
Second compound 10 µM, first compound 1 µM
  viability, T/C: 98.6%
Second compound 10 µM, first compound 3.16 µM
  viability, T/C: 97.3%
Second compound 10 µM, first compound 10 µM
  viability, T/C: 79%
